Experimental data from ChEMBL document CHEMBL1938317, “Structure-based de novo design and biochemical evaluation of novel BRAF kinase inhibitors” (Bioorg Med Chem Lett, 2012).
pKd: −log10 of the molar value.

Target: Serine/threonine-protein kinase B-raf (Homo sapiens, UniProt P15056)
Sequence (P15056 whole entry): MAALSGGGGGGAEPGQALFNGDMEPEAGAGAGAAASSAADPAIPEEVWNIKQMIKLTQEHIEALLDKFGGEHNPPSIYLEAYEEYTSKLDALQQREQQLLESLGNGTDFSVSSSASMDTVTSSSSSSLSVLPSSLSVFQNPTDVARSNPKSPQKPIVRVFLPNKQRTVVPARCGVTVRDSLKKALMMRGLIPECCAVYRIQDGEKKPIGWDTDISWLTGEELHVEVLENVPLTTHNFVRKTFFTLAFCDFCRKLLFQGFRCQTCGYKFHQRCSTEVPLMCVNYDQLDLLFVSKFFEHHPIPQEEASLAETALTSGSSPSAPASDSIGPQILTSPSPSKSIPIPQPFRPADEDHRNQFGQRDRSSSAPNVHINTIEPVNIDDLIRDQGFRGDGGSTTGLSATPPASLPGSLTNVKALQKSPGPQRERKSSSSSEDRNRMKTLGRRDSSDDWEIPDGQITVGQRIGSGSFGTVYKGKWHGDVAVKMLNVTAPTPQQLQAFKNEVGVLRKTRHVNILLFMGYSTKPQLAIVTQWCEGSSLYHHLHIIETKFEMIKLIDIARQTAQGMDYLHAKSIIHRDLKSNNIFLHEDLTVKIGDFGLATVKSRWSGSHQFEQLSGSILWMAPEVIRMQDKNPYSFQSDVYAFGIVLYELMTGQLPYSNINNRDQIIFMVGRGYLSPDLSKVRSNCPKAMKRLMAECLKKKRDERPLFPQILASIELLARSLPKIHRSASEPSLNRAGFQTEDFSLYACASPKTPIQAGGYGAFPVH
Description: Inhibition of BRAF by high-throughput assay

| pKd | Structure (SMILES) |
| --- | --- |
| 5.03 | O=C(O)c1ccc(Nc2ncnc3nc[nH]c23)cc1 |
| 5.24 | Nc1nc(Nc2cccc(O)c2)c2[nH]cnc2n1 |
| 5.55 | CCC(=O)c1cccc(Nc2nc(N)nc3nc[nH]c23)c1 |
| 5.32 | Nc1nc(Nc2cccc(F)c2)c2[nH]cnc2n1 |
| 5.49 | Nc1nc(Nc2ccc(F)c(Cl)c2)c2nc[nH]c2n1 |
| 5.39 | COc1cc(Nc2nc(N)nc3nc[nH]c23)cc(OC)c1OC |
| 5.44 | Nc1nc(Nc2ccc(Cl)c(Cl)c2)c2nc[nH]c2n1 |
| 5.77 | Nc1nc(Nc2cccc(C(F)(F)F)c2)c2[nH]cnc2n1 |
| 5.33 | Cc1ccc(Nc2nncc3c(-c4ccc(O)cc4)cccc23)cc1 |
| 5.60 | NC(=O)COc1ccc(Nc2nncc3c(-c4ccc(O)cc4)cccc23)cc1 |
| 5.43 | COc1ccc(Nc2nncc3c(-c4ccc(O)cc4)cccc23)cc1 |
| 5.29 | Oc1ccc(-c2cccc3c(Nc4cccc(O)c4)nncc23)cc1 |
| 5.10 | NC(=O)Cc1ccc(Nc2nncc3c(-c4ccc(O)cc4)cccc23)cc1 |

The next lines start with the compound.

| Structure (SMILES) | pKd |
| --- | --- |
| Nc1nc(Nc2cccc(Br)c2)c2[nH]cnc2n1 | 5.66 |
| COc1ccc(Nc2nc(N)nc3[nH]cnc23)cc1OC | 5.29 |
| Nc1nc(Nc2cccc(Cl)c2)c2nc[nH]c2n1 | 5.52 |
| c1nc2c(Nc3ccc4c(c3)OCCO4)nc(Nc3ccc4c(c3)OCCO4)nc2[nH]1 | 5.28 |
| COc1cc(Nc2nc(N)nc3[nH]cnc23)cc(OC)c1 | 5.51 |
| Nc1nc(Nc2ccccc2O)c2[nH]cnc2n1 | 5.70 |
| CC(=O)Nc1ccc(Nc2ncnc3nc[nH]c23)cc1 | 6.10 |
| NS(=O)(=O)c1ccc(Nc2nncc3c(-c4ccc(O)cc4)cccc23)cc1 | 5.33 |
| CN(C)C(=O)Cc1ccc(-c2cccc3c(Nc4cccc(O)c4)nncc23)cc1 | 5.02 |
